Consider three compounds from US5449694A, “(-)-ritodrine, therapeutic compositions and use, and method of preparation” (priority 1992, dated 1995).

Where two headings read alike, the source gives them in different places.

One series has as its system isolated rat myometrium. The series is described as follows: Effect on an isolated rat myometrium preparation (oxytocin-induced contraction). On the set-up: species or system female virgin Wistar rat. Conditions: for concentration dependence of relaxation activity: 10^-7 -10^-4 M; for IC50: read-out: concentration required for suppressing 50% of the contraction of an isolated myometrium caused by oxytocin (IC50); for minimal effective concentration: read-out: concentration at which relaxation activity was exhibited. The method, then:
(§1) Effect on an Isolated Rat Myometrium Preparation
(§2) After blowing the cranium of a female virgin Wistar rat, uterus was extracted. The preparation was suspended in a Magnus tube filled with a nutrient solution (Tyrode solution) which was maintained at 36°±1° C. and saturated with a mixed gas of 95% O2 and 5% CO2. Contractile tension was measured via an isotonic transducer and recorded on a polygraph. When the spotaneous movement was stabilized, oxytocin (2×10^-2 U/ml) was administered and either (±)-ritodrine hydrochloride, (+)-ritodrine hydrochloride or (-)-ritodrine hydrochloride (10^-7 -10^-4 M) was applied to the Magnus tube to observe the variation of the contractile tension. Suppresive effect on the oxytocin-contracted uterus was expressed by the intensity of activity of (±)-ritodrine hydrochloride, (+)-ritodrine hydrochloride or (-)-ritodrine hydrochloride based on 100% of the contraction by oxytocin.

The conditions of series [1]: cited from earlier work.
The subject of another series is guinea pig. The series can be described thus: Effect on vascular permeability (Evans blue dye infiltration, skin). It counts as in vivo, Hartley guinea pig. How it is done:
Effect on Vascular Permeability
Three Hartley guinea pigs were employed. (±)-Ritodrine hydrochloride, (+)-ritodrine hydrochloride or (-) -ritodrine hydrochloride were administered intracutaneously at a dose of 10^-2 -10^-5 g/ml into the shaved rear part of the guinea pigs. Immediately after the administration, 1 ml of a 1% Evans blue solution was administered intravenously. After 30 minutes, the animals were slaughtered by exsanguination under anesthetization with excessive amount of pentobarbital sodium. The skin was peeled to observe from the internal side of the skin the extent of dye infiltration at the site where the test material was administered. The area with dye having a size ([longer diameter+shorter diameter]/2) of 5 mm or more was judged positive.

Series [2] is described as follows: Acute toxicity test in mouse (i.v.). The format is in vivo, male ICR mice. The note with it: mouse, in vivo, iv. The method, then: (§3) Acute Toxicity Test in Mouse
(§4) (±)-Ritodrine hydrochloride, (+)-ritodrine hydrochloride or (-)-ritodrine hydrochloride was administered intravenously at a dose of 40-100 mg/kg to male ICR mice to examine their motality.

The next series deals with mice. The series is described as follows: Acute toxicity test in mouse (i.v.). The format is in vivo, male ICR mice. How it is done: as §3, §4
Series [3] relates to guinea pig tracheal smooth muscle. The series is described as follows: Effect on an isolated preparation of tracheal muscle in guinea pig (relaxation). Also noted: species or system Hartley guinea pig. The note with it: for relaxation response of tracheal muscle: 10^-8 -10-4M; for IC50: Cavia porcellus, read-out: concentration required for relaxing 50% of the maximum relaxation effect (IC50); for sequence of intensities of relaxation activity: decreasing sequence. How it is done:
(§5) Effect on an Isolated Preparation of Tracheal Muscle in Guinea Pig
After Hartley guinea pigs having body weight of 430-510 g, were anesthesized with ether, tracheae were excised to make chain preparation according to the method of Akcasu (A. Akcasu, Arch. Int. Pharmacodyn., 1959, 122, 201). The preparations were suspended in a Magnus tube filled with an air-saturated nutrient solution (Tyrode solution) maintained at 37°±1° C. Contractile tension was measured via an isotonic transducer and recorded on a polygraph. Either (±)-ritodrine hydrochloride, (+)-ritodrine hydrochloride or (-)-ritodrine hydrochloride was cumulatively applied so as the concentration in the Magnus tube to be 10^-8 -10-4M.

For another series, the system named is uterus in situ. The series can be described thus: Effect on uterine movement in situ (oxytocin-facilitated, pregnant rat). Conditions: for ED50 / minimal effective dose: Rattus norvegicus, iv; for ED50: read-out: concentration (dose) required for suppressing 50% of the increase of the uterus due to oxytocin; for minimal effective dose: read-out: dose at which suppressing effect on uterine movement was exhibited; for concentration dependence of suppressing effect: i.v., 0.05-15 mg/kg. The format is in vivo, pregnant Wistar rat. The source says:
Effect on Uterine Movement in Situ
After a pregnant Wistar rat was anesthesized with urethane-α-chloralose, the abdominal part was incised along the median line and a polyethylene cylinder was inserted. The center of the uterine horn was suspended with a suture, and the uterine movement was isotonically recorded via an isotonic transducer. When the spontaneous movement of the uterus was stabilized, 50 mU/kg/min of oxytocin was infused intravenously to facilitate the movement. When the response due to oxytocin became constant, either (±)-ritodrine hydrochloride, (+)-ritodrine hydrochloride or (-)-ritodrine hydrochloride (0.05-15 mg/kg) was administered intravenously to observe the variation of tension and frequency and amplitude of the spontaneous movement. The suppressing effect of the uterine movement on respective parameters was expressed as the intensity of the activity by either (±)-ritodrine hydrochloride, (+)-ritodrine hydrochloride or (-)-ritodrine hydrochloride based on the state facilitated by oxytocin as 100%. The variations of the tension, and the frequency and amplitude of the spontaneous movement are shown in Tables 2, 3 and 4, respectively. […] In either parameter, the (-)-isomer was effective in a concentration of 1/2-1/3 to the (±)-isomer. The (+)-isomer was effective at a dose of 1.5 mg/kg or more.

The subject of series [4] is smooth muscle (myometrium and tracheal muscle). The series is described as follows: Smooth muscle relaxation activity, myometrium and tracheal muscle taken together. Also noted: species or system rat, guinea pig. The note with it: from the activities on myometrium and tracheal muscle. How it is done: as §1, §2, §5
After Hartley guinea pigs having body weight of 430-510 g, were anesthesized with ether, tracheae were excised to make chain preparation according to the method of Akcasu (A. Akcasu, Arch. Int. Pharmacodyn., 1959, 122, 201). […] Contractile tension was measured via an isotonic transducer and recorded on a polygraph. […]

[5] abbreviates: Rattus norvegicus, oxytocin 2×10^-2 U/ml, hydrochlorides applied, Tyrode solution 36°C.
Where [6] appears, read: oxytocin-contracted isolated rat myometrium.
The mark [7] stands for this setting: acute toxicity, range stated for all three types, read-out: 50% lethal dose (LD50).
[8] abbreviates: mice, confidence limits given, read-out: LD50 (Confidence limit).
The mark [9] stands for this setting: hydrochlorides, cumulative application, Tyrode solution 37°C.
Setting [10] is: oxytocin 50 mU/kg/min i.v. infusion.
The mark [11] stands for this setting: tension, frequency and amplitude of spontaneous movement.

In the case of `C[C@H](NCCc1ccc(O)cc1)[C@H](O)c1ccc(O)cc1` (relative stereo) [(±)-isomer, (±)-erythro-1-(p-hydroxyphenyl)-2-[2-(p-hydroxyphenyl)ethylamino]-1-propanol], the “concentration dependence of relaxation activity” value in the series on isolated rat myometrium was “increased depending on the concentration”. The IC50 in the series with isolated rat myometrium (setting [5]) stood at 3.53 µM. For the same compound, the minimal effective concentration in the series with isolated rat myometrium (setting [6]) is 0.1 µM. For the same compound, the side effects result in series [1] (background) was “increase in heart rate”. Further, the “effectiveness in preventing premature birth / suppressing uterine contraction” value in series [1] (known from Japanese Patent Publications) is listed as “effective in preventing premature birth owing to its excellent activity for suppressing uterine contraction”. In the series with guinea pig (guinea pig), the “vascular permeability, positive at 0.001%” value is listed as 0/3; the “vascular permeability, positive at 0.01%” value is 0/3; the “vascular permeability, positive at 0.1%” value is 3/3; the “vascular permeability, positive at 1%” value is 3/3. In series [2] (setting [7]), the LD50 lay within 50 to 100 mg/kg. Besides, in series [2] (setting [8]), the LD50 stood at 83 mg/kg. In addition, in the series on mice (i.v., dead/total), the “mortality at 50 mg/kg” value is 0/5, the “mortality at 60 mg/kg” value was 0/5, the “mortality at 70 mg/kg” value is given as 1/5 and the “mortality at 80 mg/kg” value is recorded as 2/5. The “mortality at 90 mg/kg” value in the series on mice (i.v., dead/total) is 4/5. The “mortality at 100 mg/kg” value in the series with mice (i.v., 100 mg/kg, dead/total) is on record as 4/5. In the series on mice (mouse, in vivo), the “sequence of safeties in developing the same level of relaxation effect on smooth muscle” value (shortened to “sequence of safeties”) was “(-)-type>(±)-type>>(+)-type”. Also, in series [3], the “relaxation response of tracheal muscle” value is on record as “relaxation response depending on concentration” and the “sequence of intensities of relaxation activity” value is listed as “(-)-isomer>(±)-isomer>>(+)-isomer”. In series [3] (setting [9]), the IC50 is 0.136 µM. In the series with uterus in situ (setting [10]), the ED50 came out at 0.106 mg/kg. Besides, the minimal effective dose in the series with uterus in situ (setting [11]) was no less than 0.05 mg/kg. Also, the “concentration dependence of suppressing effect” value in the series on uterus in situ is “increased depending on the concentration”.

For `C[C@H](NCCc1ccc(O)cc1)[C@H](O)c1ccc(O)cc1.Cl` [(-)-isomer, (1R,2S)-2-(4-Hydroxyphenethylamino)-1-(4-hydroxyphenyl)-1-propanol hydrochloride], the “smooth muscle relaxation activity relative to the (±)-type” value in series [4] is recorded as 2-3 times. In addition, in the series on isolated rat myometrium, the “concentration dependence of relaxation activity” value was “increased depending on the concentration” and the “intensity of activity relative to (±)-ritodrine, by IC50 on isolated myometrium” value is reported as “about 2.6 times”. Also, in the series on isolated rat myometrium (Rattus norvegicus), the minimal effective concentration stood at 0.1 µM and the IC50 amounted to 1.35 µM. Also, the “vascular permeability, positive at 0.001%” value with guinea pig (intracutaneous, 0.001%, positive = dye area 5 mm or more, positive/total) was 0/3. Besides, the “vascular permeability, positive at 0.01%” value in the series on guinea pig (intracutaneous, 0.01%, positive = dye area 5 mm or more, positive/total) is reported as 1/3. Further, the “vascular permeability, positive at 0.1%” value in the series on guinea pig (intracutaneous, 0.1%, positive = dye area 5 mm or more, positive/total) is on record as 2/3. Also, the “vascular permeability, positive at 1%” value with guinea pig (intracutaneous, 1%, positive = dye area 5 mm or more, positive/total) is reported as 3/3. Also, in series [2] (setting [7]), the LD50 was in the range of 50 to 100 mg/kg. In addition, the LD50 in series [2] (setting [8]) was 64 mg/kg. For the same compound, the “mortality at 40 mg/kg” value in the series on mice (i.v., 40 mg/kg, dead/total) is listed as 0/5. In the series on mice (i.v., dead/total), the “mortality at 50 mg/kg” value was 1/5, the “mortality at 60 mg/kg” value was 3/5, the “mortality at 70 mg/kg” value is reported as 3/5 and the “mortality at 80 mg/kg” value is recorded as 3/5. For the same compound, in the series on mice (i.v., dead/total), the “mortality at 90 mg/kg” value is 5/5. Moreover, the “sequence of safeties” value with mice (ratio of smooth muscle relaxation to lethal toxicity, decreasing sequence) is “(-)-type>(±)-type>>(+)-type”. Besides, in series [3], the “relaxation response of tracheal muscle” value was “relaxation response depending on concentration”; the IC50 was found to be 0.0597 µM; the “sequence of intensities of relaxation activity” value is on record as “(-)-isomer>(±)-isomer>>(+)-isomer”; the “relaxation intensity relative to (±)-ritodrine, by IC50 on isolated tracheal muscle” value is “about 2.3 times”. For the same compound, in the series with uterus in situ, the ED50 turned out to be 0.059 mg/kg, the minimal effective dose is no less than 0.05 mg/kg and the “concentration dependence of suppressing effect” value is reported as “increased depending on the concentration”.

Regarding `C[C@@H](NCCc1ccc(O)cc1)[C@@H](O)c1ccc(O)cc1` [(+)-isomer], the IC50 in the series with isolated rat myometrium (setting [5]) stood at 54.6 µM. The minimal effective concentration with isolated rat myometrium (setting [6]) was no less than 10 µM. In the series on isolated rat myometrium, the “intensity of activity relative to (±)-ritodrine, by IC50 on isolated myometrium” value is 1/15. In addition, in the series with guinea pig (guinea pig), the “vascular permeability, positive at 0.001%” value is recorded as 0/3; the “vascular permeability, positive at 0.01%” value is recorded as 1/3; the “vascular permeability, positive at 0.1%” value is reported as 3/3. The LD50 in series [2] (setting [7]) was 50 to 100 mg/kg. Besides, the LD50 in series [2] (setting [8]) is 70 mg/kg. Also, in the series on mice (i.v., dead/total), the “mortality at 50 mg/kg” value is recorded as 0/5, the “mortality at 60 mg/kg” value is reported as 1/5, the “mortality at 70 mg/kg” value was 2/5 and the “mortality at 80 mg/kg” value is recorded as 4/5. In addition, the “mortality at 90 mg/kg” value in the series on mice (i.v., dead/total) is listed as 5/5. In the series with mice (mouse, in vivo), the “sequence of safeties” value is reported as “(-)-type>(±)-type>>(+)-type”. Also, in series [3], the “relaxation response of tracheal muscle” value was “relaxation response depending on concentration”; the “sequence of intensities of relaxation activity” value was “(-)-isomer>(±)-isomer>>(+)-isomer”; the “relaxation intensity relative to (±)-ritodrine, by IC50 on isolated tracheal muscle” value is reported as “about 1/40”. Moreover, the IC50 in series [3] (setting [9]) amounted to 5.61 µM. The ED50 in the series on uterus in situ (setting [10]) amounted to 3.61 mg/kg. Further, the minimal effective dose with uterus in situ (setting [11]) was no less than 1.5 mg/kg.
